# Assay: Dissolution of the compound together with gastrodin in the preparation tank
# Assay type: physicochemical
# Settings: amounts per formula of the example; with gastrodin in water for injection kept at 80 °C, vacuum, nitrogen gas
# Experimental: heating water for injection to 80-98 °C, followed by stirring under vacuum conditions at 30-80 °C, and then adding the reactant under the protection of nitrogen gas or argon gas to obtain a solution of the reactant.
# 60% of the total amount of water for injection for preparation was added into a preparation tank, heated to 95 °C with slight boiling, and kept at 80 °C. The vacuum was initiated while stirring for 10 minutes, followed by bringing breviscapine along with gastrodin and sodium carbonate weighed according to the amounts in the formula by nitrogen gas into the preparation tank. […] Next, it is sterile-filtered, sterile-filled and freeze-dried by a conventional process to obtain the freeze-dried powder for injection.
row,Compound,time in which the compound dissolved in the preparation tank
1,Breviscapine,about 5 minutes
2,Taxinine,about 5 minutes
3,COc1c(O)cc2c(c1O)[C@@H]1O[C@H](CO)[C@@H](O)[C@H](O)[C@H]1OC2=O [Bergenin],about 5 minutes
4,Oc1ccc2c(c1)OC[C@H]1c3cc4c(cc3O[C@@H]21)OCO4 [Maackiain],about 5 minutes
5,O=C1c2c(O)cccc2C([C@@H]2O[C@H](CO)[C@@H](O)[C@H](O)[C@H]2O)c2cc(CO)cc(O)c21 (some centres unmarked) [Barbaloin],about 5 minutes
6,OC[C@H]1O[C@@H](Oc2cc(O)cc(/C=C/c3ccc(O)cc3)c2)[C@H](O)[C@@H](O)[C@@H]1O [Polydatin],about 5 minutes
7,OC[C@H]1O[C@@H](Oc2cc(/C=C/c3cc(O)cc(O)c3)ccc2O)[C@H](O)[C@@H](O)[C@@H]1O,about 5 minutes
8,CC(=O)Cc1cc(=O)c2c(C)cc(O)c([C@@H]3O[C@H](CO)[C@@H](O)[C@H](O)[C@H]3O)c2o1 [Aloesin],about 5 minutes
9,O=c1c(-c2ccc(O)cc2)coc2cc(O[C@@H]3O[C@H](CO)[C@@H](O)[C@H](O)[C@H]3O)ccc12 [Daidzin],about 5 minutes

# Continued, values first:
row,time in which the compound dissolved in the preparation tank,Compound
1,about 5 minutes,COc1ccc(-c2oc3cc(O)cc(O)c3c(=O)c2O)cc1 [Kaempferide]
2,about 5 minutes,COc1ccc(/C=C/c2cc(O)cc(O[C@@H]3O[C@H](CO)[C@@H](O)[C@H](O)[C@H]3O)c2)cc1 [Deoxyrhapontin]
3,about 5 minutes,COc1ccc(/C=C/c2cc(O)cc(O[C@@H]3O[C@H](CO)[C@@H](O)[C@H](O)[C@H]3O)c2)cc1O [Rhapontin]
4,about 5 minutes,O=C1CC(c2ccccc2)Oc2cc(O)c(O)c(O)c21 (centres unmarked) [Dihydrobaicalein]
5,about 5 minutes,O=c1c(-c2ccc(O)cc2)coc2cc(O)ccc12 [Daidzein]
6,about 5 minutes,O=C1C[C@@H](c2ccc(O)cc2)Oc2cc(O)cc(O)c21 [Naringenin]
7,about 5 minutes,O=c1c(-c2ccc(O)cc2)coc2c([C@@H]3O[C@H](CO)[C@@H](O)[C@H](O)[C@H]3O)c(O)ccc12 [Puerarin]
8,about 5 minutes,O=c1cc(-c2ccccc2)oc2cc(O)c(O)c(O)c12 [Baicalein]
9,about 5 minutes,O=c1c(O)c(-c2ccc(O)c(O)c2)oc2cc(O)cc(O)c12 [Quercetin]
10,about 5 minutes,COc1ccc([C@@H]2CC(=O)c3c(O)cc(O)cc3O2)cc1O [Hesperetin]
11,about 5 minutes,O=C(O)[C@H]1O[C@@H](Oc2cc3oc(-c4ccccc4)cc(=O)c3c(O)c2O)[C@H](O)[C@@H](O)[C@@H]1O [Baicalin]
12,about 5 minutes,O=c1cc(-c2ccc(O)c(O)c2)oc2cc(O)c([C@@H]3O[C@H](CO)[C@@H](O)[C@H](O)[C@H]3O)c(O)c12 [Homoorientin]
13,about 5 minutes,Oc1ccc(C=Cc2cc(O)cc(O)c2)cc1 [Resveratrol]

# Assay: Maximum tolerance dose of gastrodin calculated from intramuscular and intravenous injection in animals
# Assay type: in vivo, human
# Settings: calculated at 60 kg from maximum tolerance dose of intramuscular and intravenous injection for animals
# Experimental: Gastrodin is a white crystalline powder, odorless, bitter taste; melting point: 153 °C~156 °C; easily soluble in water or methanol and soluble in ethanol. Gastrodin has sedative, hypnotic and analgesic effects, and has low toxicity. It can be calculated from the maximum tolerance dose of intramuscular injection and intravenous injection for animals that the maximum tolerance dose for human is 33.249 g of gastrodin (calculated at 60 kg).
row,Compound,maximum tolerance dose for human
1,"OCc1ccc(O[C@@H]2O[C@H](CO)[C@@H](O)[C@H](O)[C@H]2O)cc1 [Gastrodin, 4-hydroxymethylphenyl-β-D-glucopyranoside hemihydrate]",33.249 g

# — EP2832371B1, “APPLICATION OF GASTRODIN AS SOLUBILIZER AND METHOD FOR PREPARING INJECTION OR POWDER FOR INJECTION” (KPC Pharmaceuticals, Inc., priority 2012, dated 2013)
